Counter-ions that a name gives are not always drawn.
How the values were obtained:
[1] = physchem; type: physicochemical
Description: The salts of the present invention are particularly stable even at substantially higher temperatures than the room temperature: an analysis of their thermal stability versus time has, in fact, shown an unlimited stability of these compounds, when maintained in solid phase at 45° C. However, at 75° C., differentiated behaviors of the various salts prepared are observed with respect to one another.

[2] = system: transmethylation reactions; conditions: cited from earlier work
[3] = system: methylene tetrahydrofolic reductase; conditions: cited from earlier work
[4] = system: cholestasis; conditions: in vivo; cited from earlier work
[5] = system: steatosis; conditions: diet; alcohol, carbon tetrachloride, bromobenzene; cited from earlier work
[6] = system: ethanolamianephosphate cytidyltransferase; conditions: cited from earlier work
[7] = system: edema; conditions: carrageenin and white-of-egg acute edema; adjuvant arthritis; cited from earlier work
[8] = system: pain from myotasis; conditions: in vivo; cited from earlier work
[9] = system: osteoarthritis, Parkinson's disease, disorder of sleep, depression, atherosclerosis; conditions: cited from earlier work
[10] = system: H ribonuclease; conditions: cited from earlier work
[11] = Description: The liquors are removed by simple decantation and the precipitate is washed twice with 10 l of distilled H2 O while keeping the system under strong stirring.
[12] = Hygroscopicity of the lyophilized or dried solid; type: physicochemical
[13] = type: physicochemical

SMILES: C[S+](CC[C@H](N)C(=O)O)C[C@H]1O[C@@H](n2cnc3c(N)ncnc32)[C@H](O)[C@@H]1O (stereo partly drawn) [Example 7]
- thermal stability at 75° C. versus SAM chloride and the double salt SAM^+.HSO4^-.H2 SO4.2CH3 C6 H4 SO3 H [1]: higher stability

SMILES: C[S+](CC[C@H](N)C(=O)O)C[C@H]1O[C@@H](n2cnc3c(N)ncnc32)[C@H](O)[C@@H]1O (stereo partly drawn) [Example 1, salt of SAM with the polyparastyrene sulfonate]
- stability of the salt at 45° C. [1]: unlimited
- thermal stability at 75° C. versus SAM chloride and the double salt SAM^+.HSO4^-.H2 SO4.2CH3 C6 H4 SO3 H [1]: higher stability

SMILES: Nc1ncnc2c1ncn2[C@@H]1O[C@H](CSCC[C@H](N)C(=O)O)[C@@H](O)[C@H]1O [SAH, S-adenosyl-homocysteine]
- inhibition of transmethylation reactions [2]: powerful inhibitor

SMILES: C[S@@+](CC[C@H](N)C(=O)O)C[C@H]1O[C@@H](n2cnc3c(N)ncnc32)[C@H](O)[C@@H]1O [SAM, 5'-[[(3S)-3-amino-3-carboxy-propyl]methyl-(S)-sulfone]-5'-deoxyadenosine]
- inhibition of methylene tetrahydrofolic reductase [3]: inhibitor
- bile fluidifying effect [4]: BILE FLUIDIFYING
- hepatoprotective effect [5]: HEPATOPROTECTIVE
- inhibition of ethanolaminephosphate cytidyltransferase [6]: inhibitor
- anti-inflammatory effect [7]: ANTI-INFLAMMATORY
- analgesic effect [8]: ANALGESIC
- clinical effect: akinesia and rigidity ([9]; Parkinson's disease): IMPROVES AKINESIA
- effect on the action of levodopa ([9]; Parkinson's disease): ENHANCING
- clinical effect: psycho-affective sphere ([9]; atherosclerosis): IMPROVES
- effect on sleep ([9]; disorder of sleep mechanism or of waking-sleeping rhythm): SLEEP INDUCING
- antidepressant effect ([9]; in vivo): ANTIDEPRESSANT
- clinical effect: (depressive) symptomatology ([9]; in vivo): REDUCES OR RESOLVES
- clinical effect: muscular spasms ([9]; osteoarthritis): improves
- inhibition of H ribonuclease [10]: inhibitor
- inactivation of H ribonuclease ([10]; from calf thymus gland): irreversible inactivation

SMILES: C[S+](CCCN)C[C@H]1O[C@@H](n2cnc3c(N)ncnc32)[C@H](O)[C@@H]1O (stereo partly drawn) [deca-SAM, S-adenosyl-(5')-3-methylthiopropylamine]
- inhibition of transmethylation reactions [2]: inhibitor

SMILES: C[S+](CC[C@H](N)C(=O)O)C[C@H]1O[C@@H](n2cnc3c(N)ncnc32)[C@H](O)[C@@H]1O (stereo partly drawn) [Example 9]
- solubilization at pH 6 ([11]; pH 6): solubilizes rapidly
- stability of the salt at 45° C. [1]: unlimited
- thermal stability at 75° C. versus SAM chloride and the double salt SAM^+.HSO4^-.H2 SO4.2CH3 C6 H4 SO3 H [1]: higher stability
- hygroscopicity [12]: nonhygroscopic
- residual acidity [13]: negligible

SMILES: C[S+](CC[C@H](N)C(=O)O)C[C@H]1O[C@@H](n2cnc3c(N)ncnc32)[C@H](O)[C@@H]1O (stereo partly drawn) [Example 3]
- solubilisation time / rate at pH >4 relative to Example 1 [11]: slower rate of solubilization
- thermal stability at 75° C. versus SAM chloride and the double salt SAM^+.HSO4^-.H2 SO4.2CH3 C6 H4 SO3 H [1]: higher stability
- hygroscopicity [12]: nonhygroscopic

SMILES: C[S+](CC[C@H](N)C(=O)O)C[C@H]1O[C@@H](n2cnc3c(N)ncnc32)[C@H](O)[C@@H]1O (stereo partly drawn) [Example 2]
- solubilisation time / rate at pH >4 relative to Example 1 [11]: increase in solubilisation times
- hygroscopicity [12]: nonhygroscopic

SMILES: C[S+](CC[C@H](N)C(=O)O)C[C@H]1O[C@@H](n2cnc3c(N)ncnc32)[C@H](O)[C@@H]1O (stereo partly drawn) [Example 4]
- solubilization at pH >4 [11]: solubilizes rapidly
- half-life time at 75° C. [1]: more than one
- stability of the salt at 45° C. [1]: unlimited
- thermal stability at 75° C. versus SAM chloride and the double salt SAM^+.HSO4^-.H2 SO4.2CH3 C6 H4 SO3 H [1]: higher stability
- hygroscopicity [12]: nonhygroscopic
- residual acidity [13]: negligible

SMILES: C[S+](CC[C@H](N)C(=O)O)C[C@H]1O[C@@H](n2cnc3c(N)ncnc32)[C@H](O)[C@@H]1O (stereo partly drawn) [Example 5]
- solubilization at pH 7 ([11]; pH 7): rapidly solubilized
- stability of the salt at 45° C. [1]: unlimited
- thermal stability at 75° C. versus SAM chloride and the double salt SAM^+.HSO4^-.H2 SO4.2CH3 C6 H4 SO3 H [1]: higher stability
- half-life ([1]; solid phase, half-life time at 75° C.): > 240 h
- hygroscopicity [12]: nonhygroscopic
- residual acidity [13]: negligible

Source: patent publication US4764603A, “Stable salts of S-adenosyl-L-methionine with polyanions” (priority 1985, dated 1988)
